Assay results from US12655116B2, “Substituted isophthalic acid diamides” (Bayer Aktiengesellschaft, priority 2020, dated 2026).

Key:
ABUTH [1] = test: Pre-emergence herbicidal action against ABUTH; assay type: in vivo, Abutilon theophrasti
In short: (§1)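 Pre-emergence soil-surface spray of formulated compound (WP or EC; 600 to 800 l/ha; 0.2% wetting agent) over seeds sown in sandy loam. After 3 weeks under greenhouse conditions, damage is estimated visually in percent against untreated plants.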

ALOMY [2] = test: Pre-emergence herbicidal action against ALOMY; assay type: in vivo, Alopecurus myosuroides; conditions: 80 g/ha, pre-emergence, scored visually after 3 weeks vs untreated controls (100% = plants have died, 0% = like control plants)
In short: as §1

AMARE [3] = test: Pre-emergence herbicidal action against AMARE; assay type: in vivo, Amaranthus retroflexus
In short: as §1

AVEFA = test: Pre-emergence herbicidal action against AVEFA; assay type: in vivo, Avena fatua; conditions: pre-emergence
In short: as §1

HORMU = test: Pre-emergence herbicidal action against HORMU; assay type: in vivo, Hordeum murinum; conditions: 80 g/ha, pre-emergence
Text: Seeds of monocotyledonous and dicotyledonous weed plants and crop plants are laid out in sandy loam soil in wood-fiber pots and covered with soil. The compounds of the invention, formulated in the form of wettable powders (WP) or as emulsion concentrates (EC), are then applied to the surface of the covering soil in the form of an aqueous suspension or emulsion at a water application rate equivalent to 600 to 800 l/ha, with addition of 0.2% wetting agent. After the treatment, the pots are placed in a greenhouse and kept under good growth conditions for the trial plants. The damage to the test plants is scored visually after a test period of 3 weeks by comparison with untreated controls (herbicidal activity in percent (%): 100% activity=the plants have died, 0% activity=like control plants). […] The tables below illustrate, in an illustrative manner, the post-emergence herbicidal action of the compounds of the invention, the herbicidal activity being stated in percent.

MATIN [4] = test: Pre-emergence herbicidal action against MATIN; assay type: in vivo, Matricaria inodora
In short: as §1

POLCO = test: Pre-emergence herbicidal action against POLCO; assay type: in vivo, Polygonum convolvulus
In short: as §1

STEME [5] = test: Pre-emergence herbicidal action against STEME; assay type: in vivo, Stellaria media
In short: as §1

VIOTR [6] = test: Pre-emergence herbicidal action against VIOTR; assay type: in vivo, Viola tricolor
In short: as §1

DIGSA [7] = test: Pre-emergence herbicidal action against DIGSA; assay type: in vivo, Digitaria sanguinalis
In short: as §1

ABUTH [8] = test: Post-emergence herbicidal action against ABUTH; assay type: in vivo, Abutilon theophrasti; conditions: visual assessment about 3 weeks after treatment vs untreated controls
In short: (§2)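 Spray, one-leaf stage: WP or EC compound in water, 600–800 l/ha, 0.2% wetting agent. Plants held about 3 weeks in the greenhouse, then visually rated in percent of kill compared with untreated controls.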

ALOMY [9] = test: Post-emergence herbicidal action against ALOMY; assay type: in vivo, Alopecurus myosuroides; conditions: dosage 20 g/ha, visual assessment about 3 weeks after treatment vs untreated controls
In short: as §2

AMARE [10] = test: Post-emergence herbicidal action against AMARE; assay type: in vivo, Amaranthus retroflexus; conditions: 20 g/ha, visual assessment about 3 weeks after treatment, 100% = plants have died, 0% = like control plants
In short: as §2

MATIN [11] = test: Post-emergence herbicidal action against MATIN; assay type: in vivo, Matricaria inodora
In short: as §2

PHBPU = test: Post-emergence herbicidal action against PHBPU; assay type: in vivo, Pharbitis purpurea
In short: as §2

STEME [12] = test: Post-emergence herbicidal action against STEME; assay type: in vivo, Stellaria media
In short: as §2

VIOTR [13] = test: Post-emergence herbicidal action against VIOTR; assay type: in vivo, Viola tricolor; conditions: 20 g/ha
In short: as §2

ECHCG [14] = test: Pre-emergence herbicidal action against ECHCG; assay type: in vivo, Echinochloa crus-galli
In short: as §1

SETVI [15] = test: Pre-emergence herbicidal action against SETVI; assay type: in vivo, Setaria viridis
In short: as §1

ECHCG [16] = test: Post-emergence herbicidal action against ECHCG; assay type: in vivo, Echinochloa crus-galli
In short: as §2

SETVI [17] = test: Post-emergence herbicidal action against SETVI; assay type: in vivo, Setaria viridis
In short: as §2

DIGSA [18] = test: Post-emergence herbicidal action against DIGSA; assay type: in vivo, Digitaria sanguinalis; conditions: for Post-emergence action against DIGSA: 20 g/ha
In short: as §2

[19] = Tripleurospermum inodorum, 504 h, dosage 20 g/ha
[20] = 80 g/ha, scored visually after 3 weeks vs untreated controls (100% = plants have died, 0% = like control plants)
[21] = dosage 20 g/ha, scored visually after 3 weeks vs untreated controls, 100% = plants have died, 0% = like control plants
[22] = 20 g/ha, scored visually after 3 weeks vs untreated controls, 100% = plants have died, 0% = like control plants

CCCn1nnnc1NC(=O)c1ccc(C(F)(F)F)c(C(=O)NCC)c1C [Example 3-26]
100%: pest or weed control at 80 g/ha (ABUTH [1]; Abutilon theophrasti, 504 h, 80 g/ha, scored visually after 3 weeks vs untreated controls (100% = plants have died, 0% = like control plants)) | pest or weed control at 20 g/ha (ABUTH [1]; Abutilon theophrasti, 504 h, dosage 20 g/ha, scored visually after 3 weeks vs untreated controls, 100% = plants have died, 0% = like control plants, read-out: Pre-emergence action against ABUTH (herbicidal activity in percent)) | pest or weed control at 20 g/ha (AMARE [3]; Amaranthus retroflexus, 504 h, 20 g/ha, scored visually after 3 weeks vs untreated controls, 100% = plants have died, 0% = like control plants) | pest or weed control at 80 g/ha (AMARE [3]; Amaranthus retroflexus, 504 h, 80 g/ha, scored visually after 3 weeks vs untreated controls, 100% = plants have died, 0% = like control plants) | pest or weed control at 80 g/ha (AVEFA; Avena fatua, 504 h, 80 g/ha) | pest or weed control at 80 g/ha (MATIN [4]; Tripleurospermum inodorum, 504 h, dosage 80 g/ha) | pest or weed control at 80 g/ha (STEME [5]; Stellaria media, 504 h, dosage 80 g/ha) | pest or weed control at 20 g/ha (VIOTR [6]; Viola tricolor, 504 h, dosage 20 g/ha) | pest or weed control at 80 g/ha (VIOTR [6]; Viola tricolor, 504 h, dosage 80 g/ha) | pest or weed control at 80 g/ha (DIGSA [7]; Digitaria sanguinalis, 504 h, dosage 80 g/ha)
90%: pest or weed control at 20 g/ha (MATIN [4]; [19]) | pest or weed control at 80 g/ha (POLCO; Fallopia convolvulus, 504 h, dosage 80 g/ha) | pest or weed control at 20 g/ha (ABUTH [8]; Abutilon theophrasti, 504 h, dosage 20 g/ha) | pest or weed control at 20 g/ha (AMARE [10]; Amaranthus retroflexus, 504 h) | pest or weed control at 5 g/ha (MATIN [11]; Tripleurospermum inodorum, 504 h, dosage 5 g/ha) | pest or weed control at 20 g/ha (MATIN [11]; [19]) | pest or weed control at 20 g/ha (PHBPU; Ipomoea purpurea, 504 h, dosage 20 g/ha) | pest or weed control at 20 g/ha (STEME [12]; Stellaria media, 504 h, 20 g/ha) | pest or weed control at 20 g/ha (VIOTR [13]; Viola tricolor, 504 h)
80%: pest or weed control at 80 g/ha (ALOMY [2]; Alopecurus myosuroides, 504 h) | pest or weed control at 20 g/ha (AVEFA; Avena fatua, 504 h, 20 g/ha, scored visually after 3 weeks, 100% = plants have died, 0% = like control plants) | pest or weed control at 80 g/ha (HORMU; Hordeum murinum, 504 h) | pest or weed control at 20 g/ha (POLCO; Fallopia convolvulus, 504 h, dosage 20 g/ha) | pest or weed control at 20 g/ha (STEME [5]; Stellaria media, 504 h, dosage 20 g/ha) | pest or weed control at 5 g/ha (ABUTH [8]; Abutilon theophrasti, 504 h, dosage 5 g/ha) | pest or weed control at 20 g/ha (ALOMY [9]; Alopecurus myosuroides, 504 h) | pest or weed control at 5 g/ha (PHBPU; Ipomoea purpurea, 504 h, dosage 5 g/ha)

Cc1nnc(NC(=O)c2ccc(C(F)F)c(C(=O)NC3CC3)c2Cl)o1 [Example 6-124]
80%: Pre-emergence action against ECHCG in % (ECHCG [14]; 20 g/ha) | Pre-emergence action against HORMU in % (HORMU) | Pre-emergence action against SETVI in % (SETVI [15]; dosage 20 g/ha) | Pre-emergence action against STEME in % (STEME [5]; dosage 20 g/ha) | Post-emergence action against ABUTH in % (ABUTH [8]; dosage 5 g/ha) | Post-emergence action against ABUTH in % (ABUTH [8]; dosage 20 g/ha) | Post-emergence action against ECHCG in % (ECHCG [16]; dosage 20 g/ha) | Post-emergence action against MATIN in % (MATIN [11]; dosage 20 g/ha) | Post-emergence action against SETVI in % (SETVI [17]; dosage 5 g/ha)
90%: Pre-emergence action against ALOMY (herbicidal activity) (ALOMY [2]) | Pre-emergence action against AVEFA in % (AVEFA; 80 g/ha) | Pre-emergence action against MATIN in % (MATIN [4]; dosage 20 g/ha) | Pre-emergence action against STEME in % (STEME [5]; dosage 80 g/ha) | Post-emergence action against ALOMY in % (ALOMY [9]) | Post-emergence action against SETVI in % (SETVI [17]; dosage 20 g/ha) | Post-emergence action against STEME in % (STEME [12]; 20 g/ha) | Post-emergence action against STEME in % (STEME [12]; dosage 5 g/ha) | Post-emergence action against DIGSA (DIGSA [18])
100%: Pre-emergence action against ABUTH (herbicidal activity) (ABUTH [1]; [20]) | Pre-emergence action against ABUTH (herbicidal activity in percent) (ABUTH [1]; [21]) | Pre-emergence action against AMARE in % (AMARE [3]; [22]) | Pre-emergence action against AMARE in % (AMARE [3]; [20]) | Pre-emergence action against ECHCG in % (ECHCG [14]; 80 g/ha) | Pre-emergence action against MATIN in % (MATIN [4]; dosage 80 g/ha) | Pre-emergence action against SETVI in % (SETVI [15]; dosage 80 g/ha) | Pre-emergence action against VIOTR in % (VIOTR [6]; dosage 80 g/ha) | Pre-emergence action against DIGSA in % (DIGSA [7]; dosage 80 g/ha) | Post-emergence action at 20 g/ha against AMARE in % (AMARE [10]) | Post-emergence action against VIOTR in % (VIOTR [13])

CCNC(=O)c1c(C(F)(F)F)ccc(C(=O)Nc2nnc(C)o2)c1Br [Example 6-159]
90%: Pre-emergence action against AVEFA in % (AVEFA; 80 g/ha) | Pre-emergence action against DIGSA in % (DIGSA [7]; dosage 20 g/ha) | Post-emergence action against ABUTH in % (ABUTH [8]; dosage 5 g/ha) | Post-emergence action against ECHCG in % (ECHCG [16]; dosage 20 g/ha) | Post-emergence action against MATIN in % (MATIN [11]; dosage 20 g/ha) | Post-emergence action against STEME in % (STEME [12]; 20 g/ha) | Post-emergence action against DIGSA (DIGSA [18])
80%: Pre-emergence action against ALOMY (herbicidal activity) (ALOMY [2]) | Pre-emergence action against HORMU in % (HORMU) | Pre-emergence action against POLCO in % (POLCO; dosage 80 g/ha) | Pre-emergence action against STEME in % (STEME [5]; dosage 20 g/ha) | Post-emergence action against ALOMY in % (ALOMY [9]) | Post-emergence action against ECHCG in % (ECHCG [16]; dosage 5 g/ha) | Post-emergence action against PHBPU in % (PHBPU; dosage 20 g/ha) | Post-emergence action against DIGSA in % (DIGSA [18]; 5 g/ha)
100%: Pre-emergence action against ABUTH (herbicidal activity) (ABUTH [1]; [20]) | Pre-emergence action against ABUTH (herbicidal activity in percent) (ABUTH [1]; [21]) | Pre-emergence action against AMARE in % (AMARE [3]; [22]) | Pre-emergence action against AMARE in % (AMARE [3]; [20]) | Pre-emergence action against ECHCG in % (ECHCG [14]; 80 g/ha) | Pre-emergence action against MATIN in % (MATIN [4]; dosage 20 g/ha) | Pre-emergence action against MATIN in % (MATIN [4]; dosage 80 g/ha) | Pre-emergence action against SETVI in % (SETVI [15]; dosage 80 g/ha) | Pre-emergence action against STEME in % (STEME [5]; dosage 80 g/ha) | Pre-emergence action against VIOTR in % (VIOTR [6]; dosage 80 g/ha) | Pre-emergence action against DIGSA in % (DIGSA [7]; dosage 80 g/ha) | Post-emergence action against ABUTH in % (ABUTH [8]; dosage 20 g/ha) | Post-emergence action at 20 g/ha against AMARE in % (AMARE [10])
